Article PMC9120017, “Inhibition mechanism of the chloride channel TMEM16A by the pore blocker 1PBC” (Nature Communications, 2022)
Where two headings read alike, the source gives them in different places.

Target: T1, mouse TMEM16A mutant I636A (Mus musculus, UniProt Q8BHY3, I636A)
T1 construct: expressed in transfected cells; host or cells: HEK293T
T1 sequence (Q8BHY3 1-960 I636A): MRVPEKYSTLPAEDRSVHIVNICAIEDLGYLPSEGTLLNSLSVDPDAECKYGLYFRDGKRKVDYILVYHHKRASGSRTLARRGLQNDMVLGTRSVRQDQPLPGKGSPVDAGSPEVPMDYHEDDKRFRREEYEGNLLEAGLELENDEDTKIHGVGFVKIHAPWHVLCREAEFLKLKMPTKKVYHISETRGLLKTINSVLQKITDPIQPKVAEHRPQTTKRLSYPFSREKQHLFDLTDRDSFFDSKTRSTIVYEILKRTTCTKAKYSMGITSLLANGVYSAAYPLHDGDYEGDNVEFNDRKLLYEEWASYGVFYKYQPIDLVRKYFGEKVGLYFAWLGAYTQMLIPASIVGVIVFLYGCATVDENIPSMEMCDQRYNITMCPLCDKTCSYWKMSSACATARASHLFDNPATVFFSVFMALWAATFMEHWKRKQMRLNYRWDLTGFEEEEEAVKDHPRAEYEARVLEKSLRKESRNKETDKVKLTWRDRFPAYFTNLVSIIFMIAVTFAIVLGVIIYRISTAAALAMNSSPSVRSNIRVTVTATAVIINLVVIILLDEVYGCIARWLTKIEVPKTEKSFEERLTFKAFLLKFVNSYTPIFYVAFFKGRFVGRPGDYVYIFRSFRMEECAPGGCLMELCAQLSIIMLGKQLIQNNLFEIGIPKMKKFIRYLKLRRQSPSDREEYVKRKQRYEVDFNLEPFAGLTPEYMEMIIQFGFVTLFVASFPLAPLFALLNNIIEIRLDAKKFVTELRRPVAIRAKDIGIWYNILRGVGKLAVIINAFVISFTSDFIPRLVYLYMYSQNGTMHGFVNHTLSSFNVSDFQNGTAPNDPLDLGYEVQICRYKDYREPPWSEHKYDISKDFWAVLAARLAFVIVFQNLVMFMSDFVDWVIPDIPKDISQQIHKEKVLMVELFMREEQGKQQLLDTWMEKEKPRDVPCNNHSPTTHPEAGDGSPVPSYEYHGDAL
Assay: Inside-out patch recording of 1PBC block, mutant I636A
Assay type: cell-based
Conditions: for remaining activity at 3 µM: 1PBC conc 3; for remaining activity at 3 µM / remaining activity at 10 µM / remaining activity at 30 µM / remaining activity at 100 µM: read-out: relative current in 1PBC (avr); for remaining activity at 10 µM: 1PBC conc 10; for remaining activity at 30 µM: 1PBC conc 30; for remaining activity at 100 µM: 1PBC conc 100
Experimental: HEK293T cells (ATCC CRL-1573) were maintained in Dulbecco’s modified Eagle’s medium (DMEM; Sigma-Aldrich) supplemented with 10 U ml^−1 penicillin, 0.1 mg ml^−1 streptomycin (Sigma-Aldrich), 2 mM L-glutamine (Sigma-Aldrich), and 10% FBS (Sigma-Aldrich) in a humidified atmosphere containing 5% CO2 at 37 °C. HEK293S GnTI^− cells (ATCC CRL-3022) were maintained in HyClone HyCell TransFx-H medium (GE Healthcare) supplemented with 10 U ml^−1 penicillin, 0.1 mg ml^−1 streptomycin, 4 mM L-glutamine, 0.15% poloxamer 188 (Sigma-Aldrich), and 1% FBS in an atmosphere containing 5% CO2 at 185 rpm at 37 °C. The ac splice variant of mouse TMEM16A (UniProt ID: Q8BHY3), mouse TMEM16B (UniProt ID: Q8CFW1), or mouse TMEM16F (UniProt ID: Q6P9J9) bearing a 3C cleavage site, a Venus YFP, a Myc tag, and a Streptavidin-binding peptide (SBP) downstream of the open reading frame in a modified pcDNA3.1 vector (Invitrogen) were used as described previously[21],[31]. Mutations were introduced using a modified QuikChange method[58] and were verified by sequencing.
HEK293T cells were transfected with 3–4 μg DNA per 6 cm Petri dish using the calcium phosphate co-precipitation method and were used within 24–96 h after transfection. Recordings were performed on inside-out patches excised from HEK293T cells expressing the construct of interest. Patch pipettes were pulled from borosilicate glass capillaries (O.D. 1.5 mm, I.D. 0.86 mm, Sutter Instrument) and were fire-polished with a microforge (Narishige) before use. Pipette resistance was typically 3–8 MΩ when filled with the recording solutions detailed below. Seal resistance was typically 4 GΩ or higher. Voltage-clamp recordings were made using Axopatch 200B, Digidata 1550, and Clampex 10.7 (Molecular Devices). Analog signals were filtered with the in-built 4-pole Bessel filter at 10 kHz and were digitized at 20 kHz. Solution exchange was achieved using a gravity-fed system through a theta glass pipette mounted on an ultra-fast piezo-driven stepper (Siskiyou). […] All recordings were performed at 20 °C.
A symmetrical ionic condition was used throughout. Stock solution with Ca^2+-EGTA contained 150 mM NaCl, 5.99 mM Ca(OH)2, 5 mM EGTA, and 10 mM HEPES at pH 7.40. Stock solution with EGTA contained 150 mM NaCl, 5 mM EGTA, and 10 mM HEPES at pH 7.40. Free Ca^2+ concentrations were adjusted by mixing the stock solutions at the required ratios calculated using the WEBMAXC program (http://web.stanford.edu/~cpatton/webmaxcS.htm). Patch pipettes were filled with the stock solution with Ca^2+-EGTA, which has a free Ca^2+ concentration of 1 mM. 1PBC (ChemBridge) stock was reconstituted in anhydrous DMSO (Sigma-Aldrich) at 100 mM and stored at −20 °C. Working solutions with 1PBC were prepared by serial dilution. Unless otherwise stated, experiments were performed at a saturating Ca^2+ concentration as shown in Supplementary Table 1 and the primary data were corrected for current rundown as described previously[21],[25].
Concentration-response relations, obtained from the ratio of the I-V plots before and after the application of the blocker, were fitted to the Hill equation,1 I/Imax=1/1+IC50/[blocker]^h where I/Imax is the normalized current responses, IC50 defines the concentration at which inhibition is at its half-maximum, and h is the Hill coefficient.

IC50 (0 mV, 15 µM Ca2+): 6.73 µM
remaining activity at 3 µM (0 mV): 68.4%
remaining activity at 10 µM (0 mV): 39.2%
remaining activity at 30 µM (0 mV): 19.6%
remaining activity at 100 µM (0 mV): 9.71%
IC50 (20 mV, 15 µM Ca2+): 5.47 µM
remaining activity at 3 µM (20 mV): 63.6%
remaining activity at 10 µM (20 mV): 34.4%
remaining activity at 30 µM (20 mV): 17.1%
remaining activity at 100 µM (20 mV): 9.23%
IC50 (40 mV, 15 µM Ca2+): 4.65 µM
remaining activity at 3 µM (40 mV): 60.6%
remaining activity at 10 µM (40 mV): 30.8%
remaining activity at 30 µM (40 mV): 15.1%
remaining activity at 100 µM (40 mV): 5.83%
IC50 (60 mV, 15 µM Ca2+): 4.03 µM
remaining activity at 3 µM (60 mV): 56.6%
remaining activity at 10 µM (60 mV): 27.9%
remaining activity at 30 µM (60 mV): 14.3%
remaining activity at 100 µM (60 mV): 6.18%
log-fold IC50 (change of mutant vs WT) (80 mV): 0.2863
IC50 (80 mV, 15 µM Ca2+): 3.83 µM
remaining activity at 3 µM (80 mV): 55.6%
remaining activity at 10 µM (80 mV): 26.8%
remaining activity at 30 µM (80 mV): 13.6%
remaining activity at 100 µM (80 mV): 5.37%
IC50 (100 mV, 15 µM Ca2+): 3.89 µM
remaining activity at 3 µM (100 mV): 55.3%
remaining activity at 10 µM (100 mV): 27%
remaining activity at 30 µM (100 mV): 15.6%
remaining activity at 100 µM (100 mV): 5.12%
IC50 (120 mV, 15 µM Ca2+): 4.05 µM
remaining activity at 3 µM (120 mV): 56.6%
remaining activity at 10 µM (120 mV): 27.6%
remaining activity at 30 µM (120 mV): 16%
remaining activity at 100 µM (120 mV): 4.9%
IC50 (140 mV, 15 µM Ca2+): 4.5 µM
remaining activity at 3 µM (140 mV): 58.9%
remaining activity at 10 µM (140 mV): 29.8%
remaining activity at 30 µM (140 mV): 17.2%
remaining activity at 100 µM (140 mV): 5.22%
IC50 (-20 mV, 15 µM Ca2+): 8.22 µM
remaining activity at 3 µM (-20 mV): 73.2%
remaining activity at 10 µM (-20 mV): 44.1%
remaining activity at 30 µM (-20 mV): 22.1%
remaining activity at 100 µM (-20 mV): 10.2%
IC50 (-40 mV, 15 µM Ca2+): 10.2 µM
remaining activity at 3 µM (-40 mV): 77.7%
remaining activity at 10 µM (-40 mV): 49.5%
remaining activity at 30 µM (-40 mV): 25.2%
remaining activity at 100 µM (-40 mV): 11%
IC50 (-60 mV, 15 µM Ca2+): 12.5 µM
remaining activity at 3 µM (-60 mV): 81.7%
remaining activity at 10 µM (-60 mV): 54.6%
remaining activity at 30 µM (-60 mV): 29.3%
remaining activity at 100 µM (-60 mV): 11.8%
IC50 (-80 mV, 15 µM Ca2+): 16 µM
remaining activity at 3 µM (-80 mV): 85.2%
remaining activity at 10 µM (-80 mV): 60.7%
remaining activity at 30 µM (-80 mV): 34%
remaining activity at 100 µM (-80 mV): 16.3%
IC50 (-100 mV, 15 µM Ca2+): 19.2 µM
remaining activity at 3 µM (-100 mV): 87.8%
remaining activity at 10 µM (-100 mV): 65.1%
remaining activity at 30 µM (-100 mV): 37.6%
remaining activity at 100 µM (-100 mV): 18.6%
IC50 (-120 mV, 15 µM Ca2+): 23.6 µM
remaining activity at 3 µM (-120 mV): 90.9%
remaining activity at 10 µM (-120 mV): 69.5%
remaining activity at 30 µM (-120 mV): 41.8%
remaining activity at 100 µM (-120 mV): 22.1%
IC50 (-140 mV, 15 µM Ca2+): 27.8 µM
remaining activity at 3 µM (-140 mV): 92.3%
remaining activity at 10 µM (-140 mV): 72.1%
remaining activity at 30 µM (-140 mV): 45.6%
remaining activity at 100 µM (-140 mV): 25.9%
IC50 (I636A, V 0 mV): 6.73 µM
IC50 (I636A, V 20 mV): 5.47 µM
IC50 (I636A, V 40 mV): 4.65 µM
IC50 (I636A, V 60 mV): 4.03 µM
IC50 (I636A, V 80 mV): 3.83 µM
IC50 (I636A, V 100 mV): 3.89 µM
IC50 (I636A, V 120 mV): 4.05 µM
IC50 (I636A, V 140 mV): 4.5 µM
IC50 (I636A, V -20 mV): 8.22 µM
IC50 (I636A, V -40 mV): 10.2 µM
IC50 (I636A, V -60 mV): 12.5 µM
IC50 (I636A, V -80 mV): 16 µM
IC50 (I636A, V -100 mV): 19.2 µM
IC50 (I636A, V -120 mV): 23.6 µM
IC50 (I636A, V -140 mV): 27.8 µM
SMILES: N#Cc1c(C(F)(F)F)cc(O)n2c1nc1ccccc12 [1PBC]
